Source: patent US9868692B2, “Compounds and compositions for intracellular delivery of therapeutic agents” (MODERNATX, Inc., priority 2015, dated 2018)

System: not listed separately
Experiment: Particle size, polydispersity index (and zeta potential) of nanoparticle compositions, Zetasizer Nano ZS
Type: physicochemical
Settings: Table 1A; lipid:DSPC:cholesterol:PEG-DMG 50:10:38.5:1.5 mol %, mRNA
From the text: Nanoparticle compositions may be characterized by a variety of methods. For example, microscopy (e.g., transmission electron microscopy or scanning electron microscopy) may be used to examine the morphology and size distribution of a nanoparticle composition. Dynamic light scattering or potentiometry (e.g., potentiometric titrations) may be used to measure zeta potentials. Dynamic light scattering may also be utilized to determine particle sizes. Instruments such as the Zetasizer Nano ZS (Malvern Instruments Ltd, Malvern, Worcestershire, UK) may also be used to measure multiple characteristics of a nanoparticle composition, such as particle size, polydispersity index, and zeta potential.
A Zetasizer Nano ZS (Malvern Instruments Ltd, Malvern, Worcestershire, UK) can be used to determine the particle size, the polydispersity index (PDI) and the zeta potential of the nanoparticle compositions in 1×PBS in determining particle size and 15 mM PBS in determining zeta potential.

Q: For CCCCCCCCCCCCN(CCO)CCCCCCCCCCCC(=O)OC [Compound 137, Methyl 12-(dodecyl(2-hydroxyethyl)amino)dodecanoate], which “Size (nm)” value is on record?
A: The value was 184.4 nm.

System: not listed separately
Experiment: Encapsulation efficiency of RNA, QUANT-IT RIBOGREEN RNA assay
Type: physicochemical
Settings: Table 1A formulations
From the text: The efficiency of encapsulation of a therapeutic and/or prophylactic describes the amount of therapeutic and/or prophylactic that is encapsulated or otherwise associated with a nanoparticle composition after preparation, relative to the initial amount provided. The encapsulation efficiency is desirably high (e.g., close to 100%). The encapsulation efficiency may be measured, for example, by comparing the amount of therapeutic and/or prophylactic in a solution containing the nanoparticle composition before and after breaking up the nanoparticle composition with one or more organic solvents or detergents. Fluorescence may be used to measure the amount of free therapeutic and/or prophylactic (e.g., RNA) in a solution. For the nanoparticle compositions described herein, the encapsulation efficiency of a therapeutic and/or prophylactic may be at least 50%, for example 50%, 55%, 60%, 65%, 70%, 75%, 80%, 85%, 90%, 91%, 92%, 93%, 94%, 95%, 96%, 97%, 98%, 99%, or 100%. In some embodiments, the encapsulation efficiency may be at least 80%. In certain embodiments, the encapsulation efficiency may be at least 90%.
For nanoparticle compositions including an RNA, a QUANT-IT™ RIBOGREEN® RNA assay (Invitrogen Corporation Carlsbad, Calif.) can be used to evaluate the encapsulation of an RNA by the nanoparticle composition. The samples are diluted to a concentration of approximately 5 μg/mL in a TE buffer solution (10 mM Tris-HCl, 1 mM EDTA, pH 7.5). 50 μL of the diluted samples are transferred to a polystyrene 96 well plate and either 50 μL of TE buffer or 50 μL of a 2% Triton X-100 solution is added to the wells. The plate is incubated at a temperature of 37° C. for 15 minutes. The RIBOGREEN® reagent is diluted 1:100 in TE buffer, and 100 μL of this solution is added to each well. The fluorescence intensity can be measured using a fluorescence plate reader (Wallac Victor 1420 Multilablel Counter; Perkin Elmer, Waltham, Mass.) at an excitation wavelength of, for example, about 480 nm and an emission wavelength of, for example, about 520 nm. The fluorescence values of the reagent blank are subtracted from that of each of the samples and the percentage of free RNA is determined by dividing the fluorescence intensity of the intact sample (without addition of Triton X-100) by the fluorescence value of the disrupted sample (caused by the addition of Triton X-100).

Q: Which “EE (%)” value does the source give for CCCCCCCCCCCCN(CCO)CCCCCCCCCCCC(=O)OC [Compound 137, Methyl 12-(dodecyl(2-hydroxyethyl)amino)dodecanoate] here?
A: The value was 85.7%.

System: luciferase (Luc) mRNA expression
Experiment: Luc expression (total flux, bioluminescence) after intravenous administration to mice
Type: in vivo
Settings: i.v., 0.5 mg/kg, 3, 6 and 24 hours, versus other compositions
Method: In order to monitor how effectively various nanoparticle compositions deliver therapeutic and/or prophylactics to targeted cells, different nanoparticle compositions including a particular therapeutic and/or prophylactic (for example, a modified or naturally occurring RNA such as an mRNA) are prepared and administered to rodent populations. Mice are intravenously, intramuscularly, intraarterially, or intratumorally administered a single dose including a nanoparticle composition with a formulation such as those provided in Example 3. In some instances, mice may be made to inhale doses. Dose sizes may range from 0.001 mg/kg to 10 mg/kg, where 10 mg/kg describes a dose including 10 mg of a therapeutic and/or prophylactic in a nanoparticle composition for each 1 kg of body mass of the mouse. A control composition including PBS may also be employed.
Upon administration of nanoparticle compositions to mice, dose delivery profiles, dose responses, and toxicity of particular formulations and doses thereof can be measured by enzyme-linked immunosorbent assays (ELISA), bioluminescent imaging, or other methods. For nanoparticle compositions including mRNA, time courses of protein expression can also be evaluated. Samples collected from the rodents for evaluation may include blood, sera, and tissue (for example, muscle tissue from the site of an intramuscular injection and internal tissue); sample collection may involve sacrifice of the animals.
The efficacy of the nanoparticle compositions presented in Table 1A was evaluated with a bioluminescence study. Formulations were administered intravenously to mice (n=6) at a dosage of 0.5 mg/kg (mpk) and bioluminescence measured at 3, 6, and 24 hour time points. The standard MC3 formulation and, in some instances, a control (e.g., a PBS control) were evaluated for comparison. […] In general, flux decreased as time progressed to less than 10% of the initial flux.
The total flux (measured by area under the curve, AUC) induced by administration of a formulation including a given lipid relative to that induced by administration of a formulation including MC3 was also measured for several lipids.

Q: With CCCCCCCCCOC(=O)CCCCCCCN(CCO)CCCCCCCC(=O)OC(CCC)CCC [Compound 58, heptan-4-yl 8-((2-hydroxyethyl)(8-(nonyloxy)-8-oxooctyl)amino) octanoate] as the compound, how does the “flux at all time points measured” value read?
A: The value was “significantly lower flux”.

Q: Which “flux at all time points measured” value does the source give for CCCCCCCC/C=C\COC(=O)CCCCCN(CCO)CCCCCC(=O)OC/C=C\CCCCCCCC [Compound 140, Di((Z)-undec-2-en-1-yl) 6,6′-((2-hydroxyethyl)azanediyl)dihexanoate] here?
A: The value was “significantly lower flux”.

Q: With CCCCCCCCCOC(=O)CCCCCCCN(CCO)CCCCCCCC(=O)OC(C)(C)C [Compound 158, tert-Butyl 8-((2-hydroxyethyl)(8-(nonyloxy)-8-oxooctyl)amino)octanoate] as the compound, how does the “flux at all time points measured” value read?
A: Its value is “significantly lower flux”.

Q: Which “flux at all time points measured” value does the source give for CCCCCCCCCOC(=O)CCCCCCCN(CCO)CCCCCCCC(=O)OC(CCCC)CCCC [Compound 57, nonan-5-yl 8-((2-hydroxyethyl)(8-(nonyloxy)-8-oxooctyl)amino) octanoate] here?
A: The value was “significantly lower flux”.

Q: With CCCCCCCCCOC(=O)CCCCCCCN(CCCCCCCC(=O)OC(CCCCCCCC)CCCCCCCC)CCOC(C)=O [Compound 9, Heptadecan-9-yl 8-((2-acetoxyethyl)(8-(nonyloxy)-8-oxooctyl)amino) octanoate] as the compound, how does the “flux at all time points measured” value read?
A: The value was “significantly lower flux”.

Q: With CCCCCCCCCOC(=O)CCCCCCCN(CCCCCCCC(=O)OC(CCCCCCCC)CCCCCCCC)CCC(=O)O [Compound 125, 3-((8-(Heptadecan-9-yloxy)-8-oxooctyl)(8-(nonyloxy)-8-oxooctyl)amino)propanoic acid] as the compound, how does the “flux at all time points measured” value read?
A: The value was “significantly lower flux”.

Q: Which “flux at all time points measured” value does the source give for CCCCCCCCCCCOC(=O)CCCCCN(CCO)CCCCCC(=O)OCCCCCCCCCCC [Compound 141, Diundecyl 6,6′-((2-hydroxyethyl)azanediyl)dihexanoate] here?
A: The value was “significantly lower flux”.

Q: Which “flux at all time points measured” value does the source give for CCCCCCCCCOC(=O)CCCCCCCN(CCO)CCCCCCCC(=O)OC(CC)CC [Compound 59, nonyl 8-((2-hydroxyethyl)(8-oxo-8-(pentan-3-yloxy)octyl)amino) octanoate] here?
A: Its value is “significantly lower flux”.

Q: With CCCCCCCCCOC(=O)CCCCCCCN(CCCCCCCC(=O)OC(CCCCCCCC)CCCCCCCC)CCOCCN(C)C [Compound 17, Heptadecan-9-yl 8-((2-(2-(dimethylamino)ethoxy)ethyl)(8-(nonyloxy)-8-oxooctyl)amino)octanoate] as the compound, how does the “flux at all time points measured” value read?
A: The value was “significantly lower flux”.

Q: With CCCCCCCCCCCCN(CCO)CCCCCCCCCCCC(=O)OC [Compound 137, Methyl 12-(dodecyl(2-hydroxyethyl)amino)dodecanoate] as the compound, how does the “flux at all time points measured” value read?
A: The value was “significantly lower flux”.
